Measured values as given in paper PMC9317966, “Structure-function analysis of the AMPK activator SC4 and identification of a potent pan AMPK activator” (Biochemical Journal, 2022).

Assays:
[1] = biological target: T1, human GST-AMPK α1β2γ1 (Homo sapiens, UniProt O43741+Q13131); assay: Radiolabel SAMS kinase assay, GST-AMPK from HEK293T/17 cells immobilised on glutathione-Sepharose; format: biochemical; details: 1 µM compound
T1 construct: triply transfected with full-length AMPK α1 or α2 (NH2-terminal GST fusion, pDEST27 vector); full-length AMPK α1 or α2 (NH2-terminal GST fusion, pDEST27 vector), β1 or β2 (COOH-terminal FLAG fusion, pcDNA3.1 vector); FLAG (C); made in house; host or cells: HEK293T/17 cells, transient triple transfection
T1 sequence (Q13131 whole entry, the tested form may be a part): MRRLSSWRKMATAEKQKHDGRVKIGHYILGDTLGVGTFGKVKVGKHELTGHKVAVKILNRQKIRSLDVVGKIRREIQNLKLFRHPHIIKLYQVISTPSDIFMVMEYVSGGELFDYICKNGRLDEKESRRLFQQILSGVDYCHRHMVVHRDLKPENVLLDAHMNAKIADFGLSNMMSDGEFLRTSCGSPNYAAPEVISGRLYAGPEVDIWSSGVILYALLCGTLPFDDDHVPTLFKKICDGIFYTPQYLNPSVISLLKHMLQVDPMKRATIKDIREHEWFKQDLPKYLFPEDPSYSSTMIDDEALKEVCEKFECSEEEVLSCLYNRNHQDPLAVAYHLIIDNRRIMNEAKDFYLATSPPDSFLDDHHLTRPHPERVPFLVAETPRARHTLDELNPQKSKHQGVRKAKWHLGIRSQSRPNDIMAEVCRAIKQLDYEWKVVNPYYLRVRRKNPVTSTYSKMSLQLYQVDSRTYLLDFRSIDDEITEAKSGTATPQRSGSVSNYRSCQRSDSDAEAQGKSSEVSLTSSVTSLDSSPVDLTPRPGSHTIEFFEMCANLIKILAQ
T1 sequence (O43741 whole entry, the tested form may be a part): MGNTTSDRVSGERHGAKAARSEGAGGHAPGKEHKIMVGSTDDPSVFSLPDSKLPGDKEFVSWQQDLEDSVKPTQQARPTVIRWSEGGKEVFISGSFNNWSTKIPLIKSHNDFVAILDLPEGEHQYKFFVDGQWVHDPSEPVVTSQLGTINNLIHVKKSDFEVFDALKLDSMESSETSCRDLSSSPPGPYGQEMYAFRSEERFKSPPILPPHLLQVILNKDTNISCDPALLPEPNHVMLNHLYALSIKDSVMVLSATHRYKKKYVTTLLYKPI
T1 sequence (P54619 whole entry partner, the tested form may be a part): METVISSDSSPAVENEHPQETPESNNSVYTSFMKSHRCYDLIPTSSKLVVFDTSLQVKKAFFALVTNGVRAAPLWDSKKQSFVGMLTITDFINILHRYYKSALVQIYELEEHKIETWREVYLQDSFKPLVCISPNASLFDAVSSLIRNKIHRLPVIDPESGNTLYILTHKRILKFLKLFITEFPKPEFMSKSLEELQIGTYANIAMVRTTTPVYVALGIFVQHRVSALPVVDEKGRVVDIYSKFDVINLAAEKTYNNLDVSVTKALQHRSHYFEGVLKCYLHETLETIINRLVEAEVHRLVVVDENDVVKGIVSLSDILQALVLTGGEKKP
From the text: (§1) We generated a series of compounds to investigate whether modification of the SC4 2-hydroxybiphenyl LHS fragment affects isoform selectivity, some of which (MSG008-MSG011) are presented in Table 1. We also synthesised compound MSG012 (example I-3-54 [32]), which was reported to activate α2β2γ1 with ∼100-fold greater potency compared with α1β1γ1. MSG012 differs from SC4 by substitution of the 2-hydroxyphenyl LHS fragment with 3-cyclohexen-4-yl-1-carboxylic acid, and 2-methylbenzoic acid RHS fragment with 1-hydroxy-N,N-dimethylcyclohexan-4-yl-1-carboxamide. Our initial screen involved measuring the activity of recombinant human GST-AMPK complexes expressed in HEK293T/17 cells and immobilised on glutathione-Sepharose (Supplementary Figure S1). Enzyme activity was measured by radiolabelling the synthetic SAMS peptide substrate in the absence or presence of 1 µM compound. Consistent with our previous characterisation, SC4 activated α1β1γ1, α2β1γ1 and α2β2γ1 >2.3-fold, and weakly activated α1β2γ1 1.3-fold (Figure 1A). […] The γ isoform had little influence on AMPK activation by MSG011 as most γ2 and γ3 complexes were activated >2.2-fold at 1 µM, with α1β2γ2 being the only exception (1.6-fold activation). […] Accordingly, MSG010, MSG011 and MSG012 can be classified as pan AMPK activators.
(§2) Adherent HEK293T/17 cells at ∼50% confluency were triply transfected with full-length AMPK α1 or α2 (NH2-terminal GST fusion, pDEST27 vector), β1 or β2 (COOH-terminal FLAG fusion, pcDNA3.1 vector), and γ1, γ2 or γ3 (NH2-terminal HA fusion, pMT2 vector) in the presence of FuGENE HD transfection reagent (Promega) as per the manufacturers protocol. Cells were harvested 48 hours post-transfection by first gently washing in ice cold phosphate buffered saline (PBS; Sigma–Aldrich), then scraping in ice cold lysis buffer (50 mM TRIS pH 7.5, 150 mM NaCl, 10% (v/v) glycerol, 50 mM NaF, 5 mM sodium pyrophosphate, 1% (v/v) Triton X-100, cOmplete protease inhibitor cocktail). Lysates were clarified by centrifugation (16 000g, 3 min, 4°C), flash frozen in liquid N2 and stored at −80°C until analysis. For radioactive kinase assays, AMPK was immobilised on glutathione Sepharose 4B resin (GE Healthcare) by incubation with lysates for 1.5 h at 4°C. Following centrifugation (1000g, 3 min, 4°C), the resin was washed twice in purification buffer (50 mM HEPES pH 7.4, 150 mM NaCl, 10% (v/v) glycerol, 0.02% (v/v) Tween-20), once in 50 mM HEPES pH 7.4 with 0.02% (v/v) Tween-20, then resuspended to a 50% slurry with 50 mM HEPES pH 7.4 and 10 µl added to the activity assays. For in solution kinase assays, α1β1γ1 AMPK was eluted from glutathione-Sepharose by incubating with purification buffer supplemented with 40 mM reduced glutathione (Sigma–Aldrich).
(§3) AMPK activity was determined by phosphorylation of the SAMS peptide (Purar Chemicals, sequence: NH2-HMRSAMSGLHLVKRR-COOH) in a 25 µl reaction volume containing 100 µM SAMS peptide, 5 mM MgCl2, 200 µM ATP, [γ-^32P]-ATP (PerkinElmer) and assay buffer (50 mM HEPES pH 7.4, 1 mM DTT and 0.02% (v/v) Tween-20) and purified AMPK. Phosphotransferase activity was conducted at 30°C for 10 min and reactions were quenched by spotting 15 µl onto phosphocellulose ion-exchange chromatography paper (made in-house), followed by repeated washes in 1% H3PO4 (Merck Millipore). Ultima Gold liquid scintillation fluid (5 ml; PerkinElmer) was added to vials containing dried phosphocellulose papers, and the level of ^32P-transfer to the SAMS peptide was determined using a Tri-Carb 2900TR liquid scintillation counter (PerkinElmer).

[2] = biological target: T2, human GST-AMPK α2β2γ1 (Homo sapiens, UniProt O43741+P54646); assay: as above; format: biochemical; details: 1 µM compound
T2 construct: triply transfected with full-length AMPK α1 or α2 (NH2-terminal GST fusion, pDEST27 vector); full-length AMPK α1 or α2 (NH2-terminal GST fusion, pDEST27 vector), β1 or β2 (COOH-terminal FLAG fusion, pcDNA3.1 vector); FLAG (C); made in house; host or cells: HEK293T/17 cells, transient triple transfection
T2 sequence (P54646 whole entry, the tested form may be a part): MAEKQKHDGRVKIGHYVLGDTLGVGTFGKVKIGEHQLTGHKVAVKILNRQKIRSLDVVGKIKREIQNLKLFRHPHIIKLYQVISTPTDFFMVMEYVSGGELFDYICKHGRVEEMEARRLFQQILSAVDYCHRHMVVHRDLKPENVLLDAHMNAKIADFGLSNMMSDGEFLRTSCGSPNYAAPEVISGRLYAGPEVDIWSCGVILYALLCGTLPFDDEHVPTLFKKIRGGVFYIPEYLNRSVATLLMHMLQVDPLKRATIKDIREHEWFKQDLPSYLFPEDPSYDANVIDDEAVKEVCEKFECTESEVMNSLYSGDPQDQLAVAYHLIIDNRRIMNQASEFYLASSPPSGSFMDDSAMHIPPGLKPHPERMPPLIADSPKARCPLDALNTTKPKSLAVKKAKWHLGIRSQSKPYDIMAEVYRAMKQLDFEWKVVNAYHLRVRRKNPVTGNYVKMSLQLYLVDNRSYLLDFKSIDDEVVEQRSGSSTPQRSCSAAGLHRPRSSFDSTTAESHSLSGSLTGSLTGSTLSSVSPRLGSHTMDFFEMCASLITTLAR
T2 sequence (O43741 whole entry, the tested form may be a part): as the sequence (O43741 whole entry, the tested form may be a part) above
T2 sequence (P54619 whole entry partner, the tested form may be a part): as the sequence (P54619 whole entry partner, the tested form may be a part) above
From the text: as §1, §2, §3

[3] = biological target: T3, human GST-AMPK α2β1γ1 (Homo sapiens, UniProt P54646+Q9Y478); assay: as above; format: biochemical; details: 1 µM compound
T3 construct: triply transfected with full-length AMPK α1 or α2 (NH2-terminal GST fusion, pDEST27 vector); full-length AMPK α1 or α2 (NH2-terminal GST fusion, pDEST27 vector), β1 or β2 (COOH-terminal FLAG fusion, pcDNA3.1 vector); FLAG (C); made in house; host or cells: HEK293T/17 cells, transient triple transfection
T3 sequence (P54646 whole entry, the tested form may be a part): as the sequence (P54646 whole entry, the tested form may be a part) above
T3 sequence (Q9Y478 whole entry, the tested form may be a part): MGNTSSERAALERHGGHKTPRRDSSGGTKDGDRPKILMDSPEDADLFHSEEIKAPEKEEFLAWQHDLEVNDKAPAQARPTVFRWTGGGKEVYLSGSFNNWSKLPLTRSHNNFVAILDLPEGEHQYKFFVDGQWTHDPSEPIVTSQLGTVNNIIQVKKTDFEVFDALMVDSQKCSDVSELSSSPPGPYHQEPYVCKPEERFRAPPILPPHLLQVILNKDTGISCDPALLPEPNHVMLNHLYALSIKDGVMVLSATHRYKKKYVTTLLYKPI
T3 sequence (P54619 whole entry partner, the tested form may be a part): as the sequence (P54619 whole entry partner, the tested form may be a part) above
From the text: as §1, §2, §3

[4] = biological target: T4, human GST-AMPK α1β1γ1 (Homo sapiens, UniProt Q13131+Q9Y478); assay: as above; format: biochemical; details: for fold AMPK activation relative to vehicle: 1 µM compound
T4 construct: triply transfected with full-length AMPK α1 or α2 (NH2-terminal GST fusion, pDEST27 vector); full-length AMPK α1 or α2 (NH2-terminal GST fusion, pDEST27 vector), β1 or β2 (COOH-terminal FLAG fusion, pcDNA3.1 vector); FLAG (C); made in house; host or cells: HEK293T/17 cells, transient triple transfection
T4 sequence (Q13131 whole entry, the tested form may be a part): as the sequence (Q13131 whole entry, the tested form may be a part) above
T4 sequence (Q9Y478 whole entry, the tested form may be a part): as the sequence (Q9Y478 whole entry, the tested form may be a part) above
T4 sequence (P54619 whole entry partner, the tested form may be a part): as the sequence (P54619 whole entry partner, the tested form may be a part) above
From the text: as §1, §2, §3

[5] = test system: AMPK β1-Ser108 exchanged for Ala; set-up: method as in PMID 24352254, PMID 29657085; details: cited from earlier work
[6] = test system: α2β2γ1 AMPK; set-up: method as in PMID 29657085; details: α2β2γ1, in solution, mammalian cell-expressed AMPK; cited from earlier work
[7] = test system: α1β1γ1 AMPK; set-up: method as in PMID 29657085; details: α1β1γ1, in solution, mammalian cell-expressed AMPK; cited from earlier work
[8] = test system: α1β2γ1 AMPK; set-up: method as in PMID 29657085; details: α1β2γ1, in solution, mammalian cell-expressed AMPK, cited from earlier work
[9] = biological target: γ1AMPK complexes; assay: Radiolabel kinase assay, immobilised GST-tagged γ1AMPK (stated across γ1 complexes); format: biochemical, human
From the text: We directly compared in vitro potencies of pan activators by performing radiolabel kinase assays with γ1AMPK complexes. Initially, we used GST-tagged γ1AMPK expressed in HEK293T/17 cells and immobilised on glutathione-Sepharose (Figure 2 and Table 2). […] These assays used AMPK purified from Sf9 insect cells or E. coli that was pre-treated with CaMKK2. […] However, relative to immobilised GST-α2β1γ1 from HEK293T/17 cells, His-tagged and myristoylated α2β1γ1 AMPK (expressed in E. coli, CaMKK2-treated and assayed in solution) was at least 10-fold more sensitive to activation by both MK-8722 and MSG011 (Supplementary Figure S3B), indicating the GST-affinity tag or CaMKK2 treatment may exert some influence on sensitivity to these activators.
as §2
as §3, with “Phosphotransferase activity was conducted at 30°C for 10 min and reactions were quenched by spotting 15 µl onto phosphocellulose ion-exchange chromatography paper (made in-house), followed by repeated washes in 1% H3PO4 (Merck Millipore).” left out

fold AMPK activation relative to vehicle [1] [fold]	fold AMPK activation relative to vehicle [2]	fold AMPK activation relative to vehicle [3]	fold AMPK activation relative to vehicle [4]	EC50 fold higher than previously determined by high-throughput fluorescence-based assays in solution ([9]; compared with refs 17, 18)	EC50 ([9]; immobilised GST-γ1AMPK, read-out: EC50 values for γ1AMPK activation) [nM]	Max. fold activation ([4]; immobilised α1β1γ1) [fold]	EC50 ([4]; immobilised α1β1γ1, 0–30 µM activator) [nM]	Structure (SMILES)	reduction of activating potency on loss of β1-Ser108 phosphorylation via exchange for Ala [5] [fold]	EC50 [6] [nM]	Max. fold activation [6] [fold]	EC50 [7] [nM]	Max. fold activation [7] [fold]	EC50 ([8]; R2 for curve fit = 0.773) [nM]	Max. fold activation [8] [fold]
1.5	reduced fold activation relative to SC4	reduced fold activation relative to SC4	reduced fold activation relative to SC4					Cc1ccc(Oc2nc3nc(C#Cc4ccccc4O)c(Cl)cc3[nH]2)cc1C(=O)O [MSG009, 5-((6-Chloro-5-((2-hydroxyphenyl)ethynyl)-1H-imidazo[4,5-b]pyridin-2-yl)oxy)-2-methylbenzoic acid]							
1.3	> 2.3 fold	> 2.3 fold	> 2.3 fold					Cc1ccc(Oc2nc3nc(-c4ccc(-c5ccccc5O)cc4)c(Cl)cc3[nH]2)cc1C(=O)O [SC4]	~4	17.2	2.5	5.1	2.9	28.6	1.4
> 2.2	> 2.2 fold	> 2.2 fold	> 2.2 fold					Cc1ccc(Oc2nc3nc(-c4ccc(C5=CCC(C(=O)O)CC5)cc4)c(Cl)cc3[nH]2)cc1C(=O)O (centres unmarked) [MSG010, 4′-(2-(3-carboxy-4-methylphenoxy)-6-chloro-1H-imidazo[4,5-b]pyridin-5-yl)-2,3,4,5-tetrahydro-[1,1′-biphenyl]-4-carboxylic acid]							
				100–1000 fold	2000	1.7	2010	OCC1(c2ccc(-c3cc4nc(O[C@@H]5CO[C@H]6[C@@H]5OC[C@H]6O)[nH]c4cc3Cl)cc2)CC1 [PF-739, reference compound]							
